Measurements reported in patent publication US12037415B2, “Peptide and pharmaceutical composition for treating an eye disease comprising the same as an active pharmaceutical ingredient” (YuYu Pharma, Inc., priority 2017, dated 2024).
Non-standard residues stand in square brackets, D forms with d. Residues, ends and D or L forms follow the SMILES beside them. No end group written: not given here. ξ: configuration not given here. Pro(trans-4-F) = O=C(O)[C@@H]1C[C@@H](F)CN1; Pro(4,4-Me2) = CC1(C)CN[C@H](C(=O)O)C1; Pro(4-oxo) = O=C1CN[C@H](C(=O)O)C1; Hyp = O=C(O)[C@@H]1C[C@@H](O)CN1; Ile(3ξ) = CCC(C)[C@H](N)C(=O)O; Thr(3ξ) = CC(O)[C@H](N)C(=O)O

Key:
[1] = test system: cornea of rats with dry eye syndrome (ELGE); assay: Corneal permeability of fluorescent dye (corneal damage) in rats with ELGE-induced dry eye syndrome; assay type: in vivo, rat; conditions: 0.3% solution, day 14 after the administration
Text: In order to evaluate the eye protection effect on dry eye syndrome by YDE-001 to YDE-028 prepared in Working Example 1, a total of 320 Sprague-Dawley-type male rats (OrientBio, Seungnam, Korea) were adapted for 7 days. Thereafter, dry eye syndrome was induced in 264 test rats through extraorbital lacrimal gland excision (hereinafter, ELGE). 8 test rats without the eye abnormality were subjected to a sham operation as a control group.
The rats were systemically anesthetized by inhaling a mixed gas of 2% to 3% of isoflurane (Hana Pharm. Co., Hwasung, Korea), 70% of N2O, and 28.6% of O2 using a rodent anesthesia machine (Surgivet, Waukesha, Wis., USA) and a ventilator (Model 687, Harvard Apparatus, Cambridge, UK). Thereafter, the extraorbital lacrimal gland located in the subdermal area above the masseter muscle and under the optic nerve was excised through a transverse incision in a size of 10 mm on the anterior part of the left ear tragus. The skin was sutured by a general method. […] After 6 days following the ELGE operation, confirmation was performed through the Schirmer test by measuring the amount of tear secretion whether dry eye syndrome had been induced. Meanwhile, each rat of the control group with the sham operation was checked for the presence and location of the extraorbital lacrimal gland through a skin incision, and the skin was then sutured without the excision thereof (FIG. 134).
In addition, in order to evaluate the eye protection effect on dry eye syndrome by YDE-029 to YDE-043 prepared in Working Example 1, a total of 200 Sprague-Dawley-type male rats (OrientBio, Seungnam, Korea) were adapted for 7 days. Dry eye syndrome was induced in 165 test rats through the ELGE. 8 test rats without the eye abnormality were subjected to the sham operation as a control group. The ELGE was carried out as described above.
(§1) For YDE-001 to YDE-028, YY-102 and the 28 YDE-series were each dissolved in physiological saline at a concentration of 3 mg/ml and administered at a dose of 5 μl/eye at 9:30 am and 3:30 pm daily for 14 days after 7 days from the ELGE operation for a total of 28 times. The DS solution was dissolved in physiological saline at a concentration of 30 mg/ml and administered at a dose of 5 μl/eye twice a day for 14 days after 7 days from the ELGE operation for a total of 28 times. For the sham control and the ELGE control groups, the same stimulation as the administration was applied. In order to prevent excessive eye dryness, the same volume of physiological saline was applied in the same manner in place of the test substances.
as §1, with “Further, For YDE-029” for “For YDE-001”, “Further, For YDE-029 to YDE-043,” for “For YDE-001 to YDE-028,”, “YDE-029 to YDE-043, YY-102 and” for “YDE-001 to YDE-028, YY-102 and”, “and the 15 YDE-series were” for “and the 28 YDE-series were”, “the test substances (FIG. 137).” for “the test substances.”
After YDE-001 to YDE-028 were each administered to the eyes […], the changes in the corneal permeability were checked.
In order to measure the corneal permeability, Zolethyl 50™ (Virbac Lab., Carros, France), an animal anesthetic, was intraperitoneally injected at a dose of 25 mg/kg. Thereafter, saline containing a 1% (v/v) fluorescent solution (fluorescein sodium salt, Tokyo Kasei Kogyo Co., Tokyo, Japan) was applied to the eyes at a dose of 5 μl/eye. The eyes thus treated were closed and fixed with a tape. After 1 hour, the remaining fluorescent solution was removed using a cotton swab (FIG. 142). […]

[2] = Stability in aqueous solution, amount of related substances under long-term storage conditions; assay type: physicochemical; conditions: glass vial, 25° C., 75% RH
Protocol: In order to confirm the stability of each test substance in an aqueous solution, […] of each sample was dissolved in 1 ml of water to a concentration of 1 mg/ml, which was then charged to a glass vial, plugged with a rubber cap, sealed with an aluminum cap, and stored under long-term storage conditions (25° C., 75% RH). The stability of the test substance was evaluated by measuring the amount of related substances at the time of one week, two weeks, four weeks, eight weeks, and twelve weeks under the long-term storage conditions.

[3] = study of YDE-001 to YDE-028 (Table 16)
[4] = study of YDE-029 to YDE-043 (Table 17)

Amount of related substances (%; after 12 weeks) [2] [%] | Molecule | Permeability of fluorescent dye (%) [1, 3] [%] | Permeability of fluorescent dye (%) [1, 4] [%]
20.59 | CC(C)C[C@H](NC(=O)[C@@H](NC(=O)[C@H](CC(=O)O)NC(=O)[C@H](CCC(N)=O)NC(=O)CNC(=O)[C@@H]1C[C@@H](O)CN1)C(C)O)C(=O)N[C@@H](C)C(=O)NCC(=O)N1CCC[C@H]1C(=O)N[C@@H](CCCCN)C(=O)O (stereo partly drawn) [YDE-024, HyP-Gly-Gln-Asp-Thr-Leu-Ala-Gly-Pro-Lys] (H-[Hyp]GQD[Thr(3ξ)]LAGPK-OH) | 30.63 ± 10.41 | –
4.93 | CC(C)C[C@H](NC(=O)CNC(=O)[C@H](CC(N)=O)NC(=O)[C@H](CCC(N)=O)NC(=O)CNC(=O)[C@@H]1C[C@@H](O)CN1)C(=O)N[C@@H](C)C(=O)NCC(=O)N1CCC[C@H]1C(=O)N[C@@H](CCCCN)C(=O)O [YDE-002, HyP-Gly-Gln-Asn-Gly-Leu-Ala-Gly-Pro-Lys] (H-[Hyp]GQNGLAGPK-OH) | 38.26 ± 11.25 | –
2.11 | CC(C)C[C@H](NC(=O)CNC(=O)[C@H](Cc1cnc[nH]1)NC(=O)[C@H](CCC(N)=O)NC(=O)CNC(=O)[C@@H]1C[C@@H](O)CN1)C(=O)N[C@@H](C)C(=O)NCC(=O)N1CCC[C@H]1C(=O)N[C@@H](CCCCN)C(=O)O [YDE-004, HyP-Gly-Gln-His-Gly-Leu-Ala-Gly-Pro-Lys] (H-[Hyp]GQHGLAGPK-OH) | 35.05 ± 11.74 | –
11.33 | CCC(C)[C@H](NC(=O)[C@H](CC(=O)O)NC(=O)[C@H](CCC(N)=O)NC(=O)CNC(=O)[C@@H]1C[C@@H](O)CN1)C(=O)N[C@@H](CC(C)C)C(=O)N[C@@H](C)C(=O)NCC(=O)N1CCC[C@H]1C(=O)N[C@@H](CCCCN)C(=O)O (stereo partly drawn) [YDE-016, HyP-Gly-Gln-Asp-Ile-Leu-Ala-Gly-Pro-Lys] (H-[Hyp]GQD[Ile(3ξ)]LAGPK-OH) | 24.57 ± 10.34 | –
3.67 | CC(C)C[C@H](NC(=O)CNC(=O)[C@H](CO)NC(=O)[C@H](CCC(N)=O)NC(=O)CNC(=O)[C@@H]1C[C@@H](O)CN1)C(=O)N[C@@H](C)C(=O)NCC(=O)N1CCC[C@H]1C(=O)N[C@@H](CCCCN)C(=O)O [YDE-006, HyP-Gly-Gln-Ser-Gly-Leu-Ala-Gly-Pro-Lys] (H-[Hyp]GQSGLAGPK-OH) | 33.23 ± 13.26 | –
25.39 | CC(C)C[C@H](NC(=O)[C@H](C)NC(=O)[C@H](CC(=O)O)NC(=O)[C@H](CCC(N)=O)NC(=O)CNC(=O)[C@@H]1C[C@@H](O)CN1)C(=O)N[C@@H](C)C(=O)NCC(=O)N1CCC[C@H]1C(=O)N[C@@H](CCCCN)C(=O)O [YDE-018, HyP-Gly-Gln-Asp-Ala-Leu-Ala-Gly-Pro-Lys] (H-[Hyp]GQDALAGPK-OH) | 38.19 ± 10.96 | –
– | PGQLGLAGPK [YDE-037, Pro-Gly-Gln-Leu-Gly-Leu-Ala-Gly-Pro-Lys] | – | 36.30 ± 9.75
13.05 | CC(C)C[C@H](NC(=O)[C@@H](NC(=O)[C@H](CC(=O)O)NC(=O)[C@H](CCC(N)=O)NC(=O)CNC(=O)[C@@H]1C[C@@H](O)CN1)C(C)C)C(=O)N[C@@H](C)C(=O)NCC(=O)N1CCC[C@H]1C(=O)N[C@@H](CCCCN)C(=O)O [YDE-015, HyP-Gly-Gln-Asp-Val-Leu-Ala-Gly-Pro-Lys] (H-[Hyp]GQDVLAGPK-OH) | 15.95 ± 6.48 | –
6.86 | CC(C)C[C@H](NC(=O)CNC(=O)[C@H](CCC(N)=O)NC(=O)[C@H](CCC(N)=O)NC(=O)CNC(=O)[C@@H]1C[C@@H](O)CN1)C(=O)N[C@@H](C)C(=O)NCC(=O)N1CCC[C@H]1C(=O)N[C@@H](CCCCN)C(=O)O [YDE-003, HyP-Gly-Gln-Gln-Gly-Leu-Ala-Gly-Pro-Lys] (H-[Hyp]GQQGLAGPK-OH) | 40.45 ± 6.46 | –
3.92 | CC(C)C[C@H](NC(=O)CNC(=O)[C@H](CCC(=O)O)NC(=O)[C@H](CCC(N)=O)NC(=O)CNC(=O)[C@@H]1C[C@@H](O)CN1)C(=O)N[C@@H](C)C(=O)NCC(=O)N1CCC[C@H]1C(=O)N[C@@H](CCCCN)C(=O)O [YDE-001, HyP-Gly-Gln-Glu-Gly-Leu-Ala-Gly-Pro-Lys] (H-[Hyp]GQEGLAGPK-OH) | 25.49 ± 11.62 | –
– | CC(C)C[C@H](NC(=O)CNC(=O)[C@H](CC(C)C)NC(=O)[C@H](CCC(N)=O)NC(=O)CNC(=O)[C@@H]1C[C@@H](O)CN1)C(=O)N[C@@H](C)C(=O)NCC(=O)N1CCC[C@H]1C(=O)N[C@@H](CCC(=O)O)C(=O)O [YDE-031, HyP-Gly-Gln-Leu-Gly-Leu-Ala-Gly-Pro-Glu] (H-[Hyp]GQLGLAGPE-OH) | – | 33.35 ± 11.01
3.83 | CC(C)C[C@H](NC(=O)CNC(=O)[C@H](CC(C)C)NC(=O)[C@H](CCC(N)=O)NC(=O)CNC(=O)[C@@H]1C[C@@H](O)CN1)C(=O)N[C@@H](C)C(=O)NCC(=O)N1CCC[C@H]1C(=O)N[C@@H](CCCCN)C(=O)O [YDE-011, HyP-Gly-Gln-Leu-Gly-Leu-Ala-Gly-Pro-Lys] (H-[Hyp]GQLGLAGPK-OH) | 18.11 ± 11.61 | –
– | CC(C)C[C@H](NC(=O)CNC(=O)[C@H](CC(C)C)NC(=O)[C@H](CCC(N)=O)NC(=O)CNC(=O)[C@@H]1CC(C)(C)CN1)C(=O)N[C@@H](C)C(=O)NCC(=O)N1CCC[C@H]1C(=O)N[C@@H](CCCCN)C(=O)O [YDE-040, (4-Dimethyl)Pro-Gly-Gln-Leu-Gly-Leu-Ala-Gly-Pro-Lys] (H-[Pro(4,4-Me2)]GQLGLAGPK-OH) | – | 18.33 ± 9.41
– | CC(C)C[C@H](NC(=O)CNC(=O)[C@H](CC(C)C)NC(=O)[C@H](CCC(N)=O)NC(=O)CNC(=O)[C@@H]1C[C@@H](F)CN1)C(=O)N[C@@H](C)C(=O)NCC(=O)N1CCC[C@H]1C(=O)N[C@@H](CCCCN)C(=O)O [YDE-039, (4-Fluoro)Pro-Gly-Gln-Leu-Gly-Leu-Ala-Gly-Pro-Lys] (H-[Pro(trans-4-F)]GQLGLAGPK-OH) | – | 29.94 ± 11.40
– | CC(C)C[C@H](NC(=O)CNC(=O)[C@H](CC(C)C)NC(=O)[C@H](CCC(N)=O)NC(=O)CNC(=O)[C@@H]1CC(=O)CN1)C(=O)N[C@@H](C)C(=O)NCC(=O)N1CCC[C@H]1C(=O)N[C@@H](CCCCN)C(=O)O [YDE-035, (4-oxo)Pro-Gly-Gln-Leu-Gly-Leu-Ala-Gly-Pro-Lys] (H-[Pro(4-oxo)]GQLGLAGPK-OH) | – | 27.62 ± 6.51
– | CC(C)C[C@H](NC(=O)[C@H](CCC(N)=O)NC(=O)CNC(=O)[C@@H]1C[C@@H](O)CN1)C(=O)NCC(=O)O [YDE-043, HyP-Gly-Gln-Leu-Gly] (H-[Hyp]GQLG-OH) | – | 19.04 ± 7.36
– | CC(C)C[C@H](NC(=O)CNC(=O)[C@H](CC(C)C)NC(=O)[C@H](CCC(N)=O)NC(=O)CNC(=O)[C@@H]1C[C@@H](O)CN1)C(=O)O [YDE-042, HyP-Gly-Gln-Leu-Gly-Leu] (H-[Hyp]GQLGL-OH) | – | 20.72 ± 11.37
